Data: PubChem BioAssay (NCI)
“And” between values parts separate entries of the source, which are not always exact repeats. Equal values may be shown once.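 In this assay, cells in 96-well plates receive the compound at five concentrations for 48 hours. Endpoints are linearly interpolated between the surrounding concentrations. Here, GI50 denotes the concentration required for 50% inhibition of growth. At the TGI there is no net growth.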

Key:
Test in all cases: NCI anticancer screen, dose series, 48 h
OVCAR-4 ovarian = system: OVCAR-4 ovarian
HT29 colon = system: HT29 colon
SNB-75 CNS = system: SNB-75 CNS
UACC-62 melanoma = system: UACC-62 melanoma
KM12 colon = system: KM12 colon
A498 renal = system: A498 renal
HCT-15 colon = system: HCT-15 colon
OVCAR-8 ovarian = system: OVCAR-8 ovarian
CAKI-1 renal = system: CAKI-1 renal
U251 CNS = system: U251 CNS

Oc1c(Cl)cc(Cl)cc1Sc1cc(Cl)cc(Cl)c1O
GI50 (OVCAR-4 ovarian): 3.97 µM and 3.2 µM | TGI (OVCAR-4 ovarian): 14.3 µM and 11.7 µM | GI50 (HT29 colon): 3.71 µM and 2.22 µM | TGI (HT29 colon): 10.9 µM and 6.25 µM | GI50 (SNB-75 CNS): 3.47 µM and 2.57 µM | TGI (SNB-75 CNS): 14 µM and 7.61 µM | GI50 (UACC-62 melanoma): 3.57 µM and 2.02 µM | TGI (UACC-62 melanoma): 14.1 µM and 5.44 µM | GI50 (KM12 colon): 3.54 µM and 2.93 µM | TGI (KM12 colon): 10.7 µM and 10.5 µM | GI50 (A498 renal): 1.81 µM and 1.87 µM | TGI (A498 renal): 5.52 µM and 5.19 µM | GI50 (HCT-15 colon): 3.44 µM and 3.06 µM | TGI (HCT-15 colon): 14.8 µM and 12.5 µM | GI50 (OVCAR-8 ovarian): 3.28 µM and 2.85 µM | TGI (OVCAR-8 ovarian): 12.6 µM and 11.4 µM | GI50 (CAKI-1 renal): 2.65 µM and 2.04 µM | TGI (CAKI-1 renal): 9.13 µM and 5.93 µM | GI50 (U251 CNS): 3.01 µM and 2.74 µM | TGI (U251 CNS): 11.2 µM and 10.5 µM

COC(=O)C(=O)C(C(=O)C(N)=O)c1nc2ccc(C(=O)c3ccccc3)cc2[nH]c1=O (centres undefined)
TGI (OVCAR-4 ovarian): > 100 µM | TGI (HT29 colon): > 100 µM | TGI (SNB-75 CNS): > 100 µM | TGI (UACC-62 melanoma): > 100 µM | TGI (KM12 colon): > 100 µM | TGI (A498 renal): > 100 µM | TGI (HCT-15 colon): > 100 µM | TGI (OVCAR-8 ovarian): > 100 µM | TGI (CAKI-1 renal): > 100 µM | TGI (U251 CNS): > 100 µM

CCCCCCNC(=O)Oc1ccc(/C(=C(/C)Cc2ccc(OC)cc2)c2ccc(OCCN(C)C)cc2)cc1
GI50 (OVCAR-4 ovarian): 5.02 µM | TGI (OVCAR-4 ovarian): 10.3 µM | GI50 (HT29 colon): 1.2 µM | TGI (HT29 colon): 4.58 µM | GI50 (SNB-75 CNS): 3.99 µM | TGI (SNB-75 CNS): 8.53 µM | GI50 (UACC-62 melanoma): 4.44 µM | TGI (UACC-62 melanoma): 8.72 µM | GI50 (KM12 colon): 4.98 µM | TGI (KM12 colon): 10.1 µM | GI50 (A498 renal): 5.34 µM | TGI (A498 renal): 9.92 µM | GI50 (HCT-15 colon): 2.02 µM | TGI (HCT-15 colon): 6.6 µM | GI50 (OVCAR-8 ovarian): 5.32 µM | TGI (OVCAR-8 ovarian): 11.1 µM | GI50 (CAKI-1 renal): 5.39 µM | TGI (CAKI-1 renal): 9.95 µM | GI50 (U251 CNS): 3.61 µM | TGI (U251 CNS): 7.9 µM

[N-]=[N+]=CC(=O)COC(=O)c1ccccc1
TGI (OVCAR-4 ovarian): > 100 µM | TGI (HT29 colon): > 100 µM | TGI (SNB-75 CNS): > 100 µM | TGI (UACC-62 melanoma): > 100 µM | TGI (KM12 colon): > 100 µM | TGI (A498 renal): > 100 µM | TGI (HCT-15 colon): > 100 µM | TGI (OVCAR-8 ovarian): > 100 µM | TGI (CAKI-1 renal): > 100 µM | TGI (U251 CNS): > 100 µM

CCOC(=O)c1c2c(n(Cc3ccccc3)c1C)-c1nc(Cc3ccccc3)[nH]c1C(=O)C2=O
GI50 (OVCAR-4 ovarian): 1.03 µM | TGI (OVCAR-4 ovarian): 2.76 µM | GI50 (HT29 colon): 1.64 µM | TGI (HT29 colon): 3 µM | GI50 (SNB-75 CNS): 1.49 µM | TGI (SNB-75 CNS): 2.81 µM | GI50 (UACC-62 melanoma): 1.74 µM | TGI (UACC-62 melanoma): 3.55 µM | GI50 (KM12 colon): 1.83 µM | TGI (KM12 colon): 3.83 µM | GI50 (A498 renal): 1.74 µM | TGI (A498 renal): 3.17 µM | GI50 (HCT-15 colon): 1.59 µM | TGI (HCT-15 colon): 2.94 µM | GI50 (OVCAR-8 ovarian): 2.03 µM | TGI (OVCAR-8 ovarian): 4.99 µM | GI50 (CAKI-1 renal): 0.673 µM | TGI (CAKI-1 renal): 2.18 µM | GI50 (U251 CNS): 1.77 µM | TGI (U251 CNS): 3.15 µM

CC[C@]1(O)C[C@@H]2CN(CCc3c([nH]c4ccccc34)[C@@](C(=O)OC)(c3cc4c(cc3OC)N(C)[C@H]3[C@@](O)(C(N)=O)[C@H](O)[C@]5(CC)[C@@H]6C[C@@H]6CN6CC[C@]43[C@@H]65)C2)C1
GI50 (OVCAR-4 ovarian): 0.0931 µM | TGI (OVCAR-4 ovarian): > 33.3 µM | GI50 (HT29 colon): < 0.00333 µM | GI50 (SNB-75 CNS): < 0.00333 µM | TGI (SNB-75 CNS): 20.6 µM | GI50 (UACC-62 melanoma): < 0.00333 µM | TGI (UACC-62 melanoma): > 33.3 µM | GI50 (KM12 colon): < 0.00333 µM | TGI (KM12 colon): > 29.8 µM | GI50 (A498 renal): 0.00466 µM | TGI (A498 renal): 0.243 µM | GI50 (HCT-15 colon): 0.148 µM | TGI (HCT-15 colon): > 21.4 µM | GI50 (OVCAR-8 ovarian): 0.0143 µM | TGI (OVCAR-8 ovarian): > 33.3 µM | GI50 (CAKI-1 renal): 1.12 µM | TGI (CAKI-1 renal): > 33.3 µM | GI50 (U251 CNS): < 0.00333 µM | TGI (U251 CNS): > 33.3 µM

O=C(CSc1nc(-c2ccccc2)c(-c2ccccc2)[nH]1)NNC(=S)Nc1ccccc1
TGI (OVCAR-4 ovarian): > 100 µM | TGI (HT29 colon): > 100 µM | TGI (SNB-75 CNS): > 100 µM | TGI (UACC-62 melanoma): > 100 µM | TGI (KM12 colon): > 100 µM | TGI (A498 renal): > 100 µM | TGI (HCT-15 colon): > 100 µM | TGI (OVCAR-8 ovarian): > 100 µM | TGI (CAKI-1 renal): > 100 µM | TGI (U251 CNS): > 100 µM

O=C(Nc1ccc(Br)cc1)Nc1nn(C(=O)Nc2ccc(Br)cc2)c2ccccc12
GI50 (OVCAR-4 ovarian): 22.6 µM | TGI (OVCAR-4 ovarian): > 66.8 µM | GI50 (HT29 colon): > 100 µM | TGI (HT29 colon): > 100 µM | GI50 (SNB-75 CNS): 8.26 µM | TGI (SNB-75 CNS): 28.7 µM | GI50 (UACC-62 melanoma): 36.5 µM | TGI (UACC-62 melanoma): > 100 µM | GI50 (KM12 colon): > 88.8 µM | TGI (KM12 colon): > 100 µM | GI50 (A498 renal): 31.4 µM | TGI (A498 renal): > 81 µM | GI50 (HCT-15 colon): > 74.2 µM | TGI (HCT-15 colon): > 100 µM | GI50 (OVCAR-8 ovarian): 36.2 µM | TGI (OVCAR-8 ovarian): > 100 µM | GI50 (CAKI-1 renal): 44.2 µM | TGI (CAKI-1 renal): > 84 µM | GI50 (U251 CNS): 13.4 µM | TGI (U251 CNS): 43.6 µM

Clc1ccc(-c2c(C3=NCCN3)nnn2-c2ccccc2)cc1
TGI (OVCAR-4 ovarian): > 100 µM | TGI (HT29 colon): > 100 µM | TGI (SNB-75 CNS): > 100 µM | TGI (UACC-62 melanoma): > 100 µM | TGI (KM12 colon): > 100 µM | TGI (A498 renal): > 100 µM | TGI (HCT-15 colon): > 100 µM | TGI (OVCAR-8 ovarian): > 100 µM | TGI (CAKI-1 renal): > 100 µM | TGI (U251 CNS): > 100 µM

COc1cc(/C=C2\CN(C(=O)CCN3CCC(=NO)CC3)C/C(=C\c3cc(OC)c(OC)c(OC)c3)C2=O)cc(OC)c1OC
GI50 (OVCAR-4 ovarian): 0.733 µM | TGI (OVCAR-4 ovarian): 2.15 µM | GI50 (HT29 colon): 0.369 µM | TGI (HT29 colon): 1.51 µM | GI50 (SNB-75 CNS): 0.425 µM | TGI (SNB-75 CNS): 2 µM | GI50 (UACC-62 melanoma): 0.182 µM | TGI (UACC-62 melanoma): 0.411 µM | GI50 (KM12 colon): 0.263 µM | TGI (KM12 colon): 0.731 µM | GI50 (A498 renal): 0.658 µM | TGI (A498 renal): 2.07 µM | GI50 (HCT-15 colon): 0.972 µM | TGI (HCT-15 colon): 3.22 µM | GI50 (OVCAR-8 ovarian): 0.444 µM | TGI (OVCAR-8 ovarian): > 35.6 µM | GI50 (CAKI-1 renal): 0.837 µM | TGI (CAKI-1 renal): 2.34 µM | GI50 (U251 CNS): 0.291 µM | TGI (U251 CNS): 1.01 µM

CN(C)CCCc1c2ccccc2nc2ccc(Cl)cc12
TGI (OVCAR-4 ovarian): 56.1 µM | TGI (HT29 colon): 28.5 µM | TGI (SNB-75 CNS): 31.8 µM | TGI (UACC-62 melanoma): 34.2 µM | TGI (KM12 colon): 32.5 µM | TGI (A498 renal): 34.2 µM | TGI (HCT-15 colon): 93.7 µM | TGI (OVCAR-8 ovarian): 32.6 µM | TGI (CAKI-1 renal): 31.4 µM | TGI (U251 CNS): 24.8 µM
